Experimental data: patent publication US20220331303A1, “USE OF AN OREXIN 2 RECEPTOR AGONIST FOR THE TREATMENT OF EXCESSIVE SLEEPINESS” (Takeda Pharmaceutical Company Limited, priority 2019, published 2022)

Test system: sleep-deprived healthy volunteers
Assay: Polysomnography (PSG) of recovery sleep after sleep deprivation in healthy volunteers
Type: in vivo, human
Procedure: Exploratory objectives in sleep-deprived healthy volunteers were as follows: • 1. To compare the effects of Compound A (LD and HD) and modafinil (300 mg) on promoting wakefulness as measured by MWT. • 2. To determine PK-PD relationships for selected PD measures. • 3. To evaluate PK-BP relationships in BP change after Compound A administration. • 4. To compare various polysomnography (PSG) parameters between Day −1 (predose) and Day 2 (recovery sleep). • 5. To determine whether there is any difference in the PSG parameters on Day 2 (recovery sleep) between Compound A and placebo or modafinil. • 6. To evaluate the continuous electroencephalogram (EEG) obtained during the MWTs for power spectra changes for Compound A (LD and HD) versus placebo, Compound A (LD and HD) versus modafinil, and modafinil versus placebo.
During the day before dosing on Day 1, participants were administered the KSS at scheduled timepoints. A practice MWT session was performed on Day 1 treatment period 1 (only once during the entire study) to familiarize subjects with the procedures. Study drug was administered in the clinic in the evening on Day 1 of each treatment period. Subjects underwent the MWT and KSS at specified timepoints after the start of the infusion. Subjects were required to stay awake between the MWT tests. Following completion of the IV infusion on Day 2, subjects underwent an additional MWT test. When the final MWT test and cognitive testing were completed, subjects were allowed to sleep (recovery sleep) for approximately 6 hours. PSG recording was collected during this time. Subjects were discharged from the unit after completion on Day 2 with continuing actigraphy upon discharge (to begin on Day −6 before the next treatment period). The interval between each subsequent treatment period was at least 7 days to ensure that the subject's circadian rhythm had returned to a normal cycle. Subject's vital signs, including BP, were monitored during the dosing and testing period. Blood samples for determination of Compound A plasma concentrations were collected at specified timepoints on Days 1 and 2 of each treatment period. Subjects completed the Columbia-Suicide Severity Rating Scale (C-SSRS) during screening, before study drug administration, and before discharge on Day 2 of each treatment period.
The PSGs assess recovery sleep during the day after the end of the sleep deprivation period. There were no corrections for multiple comparisons. […]

[1] = Compound A 112 mg, recovery sleep
[2] = HD: Compound A 112 mg, recovery sleep

COC(=O)N1CCC[C@H](NS(C)(=O)=O)[C@@H]1CO[C@H]1CC[C@@H](c2ccccc2)CC1 [Compound A, methyl (2R,3S)-3-((methylsulfonyl)amino)-2-(((cis-4-phenylcyclohexyl)oxy)methyl)piperidine-1-carboxylate]
PSG N2 latency, LS mean difference vs placebo (Compound A 44 mg, recovery sleep): -2.74 min
PSG REM latency, LS mean difference vs placebo [1]: 29.64 min
PSG stage REM %, LS mean difference vs placebo [1]: −5.66%
PSG stage REM duration, LS mean difference vs placebo [1]: -19.73 min
Stage N3 Duration LS Mean (HD: Compound A 112 mg): 87.23 min
Stage N3 Duration LS Mean Difference vs placebo Estimate (HD: Compound A 112 mg): 5.85 min
Stage REM % LS Mean (HD: Compound A 112 mg): 15.72%
Stage REM % LS Mean Difference vs placebo Estimate (HD: Compound A 112 mg): −5.66%
Stage REM Duration LS Mean (HD: Compound A 112 mg): 46.83 min
Stage REM Duration LS Mean Difference vs placebo Estimate (HD: Compound A 112 mg): -19.73 min
Stage Wake % LS Mean (HD: Compound A 112 mg): 11.14%
Stage Wake % LS Mean Difference vs placebo Estimate (HD: Compound A 112 mg): 0.84%
Stage Wake Duration LS Mean (HD: Compound A 112 mg): 36.46 min
Stage Wake Duration LS Mean Difference vs placebo Estimate (HD: Compound A 112 mg): 0.93 min
Total Arousal Index LS Mean (HD: Compound A 112 mg): 9.18
Total Arousal Index LS Mean Difference vs placebo Estimate (HD: Compound A 112 mg): −0.81
Total Arousal LS Mean (HD: Compound A 112 mg): 46.54
Total Arousal LS Mean Difference vs placebo Estimate (HD: Compound A 112 mg): −3.87
Total Leg Movements LS Mean (HD: Compound A 112 mg): 16.94
Total Leg Movements LS Mean Difference vs placebo Estimate (HD: Compound A 112 mg): −2.01
Total Leg Movements N1 LS Mean (HD: Compound A 112 mg): 1.41
Total Leg Movements N1 LS Mean Difference vs placebo Estimate (HD: Compound A 112 mg): 0.15
Total Leg Movements N2 LS Mean (HD: Compound A 112 mg): 7.59
Total Leg Movements N2 LS Mean Difference vs placebo Estimate (HD: Compound A 112 mg): −0.95
Total Leg Movements N3 LS Mean (HD: Compound A 112 mg): 2.72
Total Leg Movements N3 LS Mean Difference vs placebo Estimate (HD: Compound A 112 mg): 1.09
Total Leg Movements REM LS Mean (HD: Compound A 112 mg): 4.18
Total Leg Movements REM LS Mean Difference vs placebo Estimate (HD: Compound A 112 mg): −1.57
Total Leg Movements with Awakening LS Mean (HD: Compound A 112 mg): 0.84
Total Leg Movements with Awakening LS Mean Difference vs placebo Estimate (HD: Compound A 112 mg): −0.91
Total Leg Movements with Microarous LS Mean (HD: Compound A 112 mg): 2.14
Total Leg Movements with Microarous LS Mean Difference vs placebo Estimate (HD: Compound A 112 mg): 0.13
Total Leg Movements with Resp Event LS Mean (HD: Compound A 112 mg): 0.06
Total Leg Movements with Resp Event LS Mean Difference vs placebo Estimate (HD: Compound A 112 mg): 0.01
Total Leg Movements without Arousal LS Mean (HD: Compound A 112 mg): 14.77
Total Leg Movements without Arousal LS Mean Difference vs placebo Estimate (HD: Compound A 112 mg): −2.15
Total Recording Time LS Mean (HD: Compound A 112 mg): 351.06 min
Total Recording Time LS Mean Difference vs placebo Estimate (HD: Compound A 112 mg): -5.85 min
Total Sleep Time LS Mean (HD: Compound A 112 mg): 298.98 min
Total Sleep Time LS Mean Difference vs Placebo Estimate (HD: Compound A 112 mg): -10.49 min
Wake After Persistent Sleep LS Mean (HD: Compound A 112 mg): 35.95 min
Wake After Persistent Sleep LS Mean Difference vs placebo Estimate (HD: Compound A 112 mg): 1.33 min
Wake After Sleep Onset LS Mean (HD: Compound A 112 mg): 36.46 min
Wake After Sleep Onset LS Mean Difference vs placebo Estimate (HD: Compound A 112 mg): 0.93 min
PSG Awakenings LS Mean [2]: 5.71
PSG Awakenings LS Mean Difference vs Placebo Estimate [2]: 1.22
PSG N1 Latency LS Mean [2]: 2.89 min
PSG N1 Latency LS Mean Difference vs Placebo Estimate [2]: -2.47 min
PSG N2 Latency LS Mean [2]: 4.72 min
PSG N2 Latency LS Mean Difference vs Placebo Estimate [2]: -1.93 min
PSG N3 Latency LS Mean [2]: 15.83 min
PSG N3 Latency LS Mean Difference vs Placebo Estimate [2]: -11.45 min
PSG Per. Slp LS Mean [2]: 4.50 min
PSG Per. Slp LS Mean Difference vs Placebo Estimate [2]: -2.37 min
PSG REM Latency LS Mean [2]: 84.57 min
PSG REM Latency LS Mean Difference vs Placebo Estimate [2]: 29.64 min
PSG Sleep Efficiency LS Mean [2]: 84.65%
PSG Sleep Efficiency LS Mean Difference vs Placebo Estimate [2]: −2.06%
PSG Sleep Onset LS Mean [2]: 2.94 min
PSG Sleep Onset LS Mean Difference vs Placebo Estimate [2]: -1.04 min
PSG Spontaneous Arousal Index LS Mean [2]: 8.26
PSG Spontaneous Arousal Index LS Mean Difference vs Placebo Estimate [2]: −0.67
PSG Spontaneous Arousal LS Mean [2]: 41.46
PSG Spontaneous Arousal LS Mean Difference vs Placebo Estimate [2]: −3.61
PSG Stage N1 % LS Mean [2]: 6.08%
PSG Stage N1 % LS Mean Difference vs Placebo Estimate [2]: 0.00%
PSG Stage N1 Duration LS Mean [2]: 18.05 min
PSG Stage N1 Duration LS Mean Difference vs Placebo Estimate [2]: -0.35 min
PSG Stage N2 % LS Mean [2]: 48.93%
PSG Stage N2 % LS Mean Difference vs Placebo Estimate [2]: 2.22%
PSG Stage N2 Duration LS Mean [2]: 147.83 min
PSG Stage N2 Duration LS Mean Difference vs Placebo Estimate [2]: 3.76 min
